Measurements: patent US20060083790A1, “Combination of an ibat inhibitor and a metal salt for the treatment of diarrhoea” (priority 2002, published 2006)
Where two headings read alike, the source gives them in different places.

Tests used:
[1] = dog
Method: The IBAT inhibitor is dosed orally at a dose that will cause diarrhoea, for example 25-50 μmol/kg. The metal salt is then introduced into the colon, through the fistulae, to see if the diarrhoea can be prevented. The dose of the metal salt varies and can be determined after analysing the bile acid concentration in faeces from dogs having been exposed to the same dose of the IBAT inhibitor.
A solution of an BAT inhibitor was administered directly into the stomach of the dog via an orogastric tube (t=0 hours). The dog was fed 30 minutes after the administration of the IBAT inhibitor (t=0.5 hours).
Faeces was collected during the first 8 hours after administration, and the time for each bowel movement was recorded. Each faeces sample was homogenized with a high-shear mixer and, subsequently, centrifuged in order to separate the solid material from the faecal water phase. The faecal water was collected and analysed with respect to bile acid content. The amount of bile acid in the faecal water was related to the amount of solid material in each faeces sample.

[2] = for Concentration of bile acids: pH 7.4, supernatant
Method: A solution containing a mixture of bile acids was prepared by dissolving the following components in deionised water:
The pH was adjusted to 7.4.
A calcium chloride solution was prepared by dissolving the following components in deionised water:
2.0 ml of the bile acid solution was added to each of 6 glass vials. A known volume, varying from 0 to 300 μl, of the calcium chloride solution was added to each vial. Each sample was inspected visually immediately after the calcium chloride addition. 1.5 ml of each sample was transferred into a centrifugation tube and centrifuged for 20 mins at 14 000 rpm. The clear supernatant was collected and analysed with respect to bile acid content. The analyses were carried out using a bile acid analysis kit which employs an enzymatic colour reaction. The concentration of bile acid is proportional to the colour intensity which is determined by spectrophotometry.

[3] = for Absorbance (taurocholate concentration after the enzymatic colour reaction): pH 6.5, supernatant
Method: A solution simulating the human intestinal fluid in the fasted state, FaSSIF, was prepared by dissolving the following components in deionised water.
The pH was adjusted to 6.5.
A separate solution of calcium chloride was prepared by dissolving 149.2 mM of the salt in deionised water.
5.0 ml of FaSSIF was added to each of 7 glass vials. A known volume, varying from 0 to 0.5 ml, of the calcium chloride solution was added to each vial. Each sample was inspected visually immediately after the calcium chloride addition.
A volume of 1.0 ml was withdrawn from each sample and centrifuged for 20 mins at 14 000 rpm. The clear supernatant of each sample was collected and analysed with respect to bile acid content. The analyses were carried out using a bile acid analysis kit which employs an enzymatic colour reaction. The concentration of bile acid is proportional to the colour intensity which is determined by spectrophotometry.

[4] = 200 mg crystalline calcium phosphate in 10 ml, initial GDC 1-15 mM, pH 7.4, all samples
Method: A stock solution of sodium glycodeoxycholate (GDC) was prepared by dissolving the following substances in deionised water:
(§1) The pH was adjusted to 7.4 with sodium hydroxide.
(§2) A similar buffer solution with the same content, except for the bile acid was also prepared.
The resulting initial GDC concentrations in the samples were 1-15 mM. The samples were equilibrated for several hours. The solid material in the samples were removed by centrifugation and/or filtration, and the obtained clear supernatants were analysed with respect to GDC content. The analyses were carried out by HPLC.

[5] = 200 mg crystalline calcium phosphate in 10 ml, initial DC 1-20 mM, pH 7.4, all samples
Method: A stock solution of sodium deoxycholate (DC) was prepared by dissolving the following substances in deionised water:
as §1, §2
The resulting initial DC concentrations in the samples were 1-20 mM. The samples were equilibrated for several hours. The solid material in the samples were removed by centrifugation and/or filtration, and the obtained clear supernatants were analysed with respect to DC content. The analyses were carried out by HPLC.

[6] = with increasing added amount of calcium chloride

Compound	Bile acid concentration in faecal water ([1]; IBAT inhibitor into the stomach at t=0, intracolonic calcium chloride at t=1 hour, as long as calcium chloride is present in the colon)	Time after which most of the calcium chloride has been removed from the colon ([1]; intracolonic administration, removed by absorption or by bowel movements)	Concentration of bile acids ([2]; 3.0 μmol calcium chloride added to 2.0 ml bile acid solution) [mM]	Concentration of bile acids ([2]; 6.0 μmol calcium chloride added to 2.0 ml bile acid solution) [mM]	Concentration of bile acids ([2]; 12.0 μmol calcium chloride added to 2.0 ml bile acid solution) [mM]	Concentration of bile acids ([2]; 30.0 μmol calcium chloride added to 2.0 ml bile acid solution) [mM]	Concentration of bile acids ([2]; 60.1 μmol calcium chloride added to 2.0 ml bile acid solution) [mM]	Visual inspection immediately after calcium chloride addition ([2]; bile acid mixture, all samples with calcium chloride)	Concentration of bile acids in the aqueous solution, trend [2, 6]	Absorbance (taurocholate concentration after the enzymatic colour reaction) ([3]; 7.5 μmol calcium chloride added to 5.0 ml FaSSIF)	Absorbance (taurocholate concentration after the enzymatic colour reaction) ([3]; 14.9 μmol calcium chloride added to 5.0 ml FaSSIF)	Absorbance (taurocholate concentration after the enzymatic colour reaction) ([3]; 22.4 μmol calcium chloride added to 5.0 ml FaSSIF)	Absorbance (taurocholate concentration after the enzymatic colour reaction) ([3]; 29.8 μmol calcium chloride added to 5.0 ml FaSSIF)	Absorbance (taurocholate concentration after the enzymatic colour reaction) ([3]; 44.8 μmol calcium chloride added to 5.0 ml FaSSIF)	Absorbance (taurocholate concentration after the enzymatic colour reaction) ([3]; 74.6 μmol calcium chloride added to 5.0 ml FaSSIF)	Visual inspection immediately after calcium chloride addition ([3]; FaSSIF, all samples with calcium chloride)	Concentration of taurocholate in the aqueous solution, trend [3, 6]	GDC concentration in supernatant (HPLC) [4]	DC concentration in supernatant (HPLC) [5]
[Ca+2].[Cl-].[Cl-] [calcium chloride]	relatively constant	approximately 3.5 hours	2.2	2.1	1.9	0.8	0.7	a precipitate was formed in all samples	decreased with increasing added amount of calcium chloride	0.0933	0.0890	0.0843	0.0783	0.0735	0.0718	A precipitate was formed in all samples	decreased with increasing added amount of calcium chloride	–	–
calcium phosphate	–	–	–	–	–	–	–	–	–	–	–	–	–	–	–	–	–	reduced by the presence of calcium phosphate in all samples	reduced by the presence of calcium phosphate in all samples
